Test results reported in PubChem BioAssay (NCI).
Values joined by “and” are separate entries in the source; they are usually repeats but may differ in a detail not shown here. Equal values may be shown once.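 All cell lines were grown in 96-well plates and treated with compound for 48 hours. GI50 marks 50% less growth. At the TGI there is no net growth.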 Where a SMILES comes first, the peptide text is derived from it. [ ]: non-standard residue; d: D form. 2Nal = N[CH](Cc1ccc2ccccc2c1)C(=O)O

What was measured:
Test in all cases: inhibition of tumour cell growth, NCI panel, 48 h
[1] = tested on: HCT-116 colon
[2] = tested on: SK-MEL-28 melanoma
[3] = tested on: UO-31 renal
[4] = tested on: NCI-H522 lung
[5] = tested on: EKVX NSCLC
[6] = tested on: HL-60(TB) leukemia
[7] = tested on: KM12 colon
[8] = tested on: BT-549 breast
[9] = tested on: DU-145 prostate
[10] = tested on: NCI/ADR-RES ovarian

Structure (SMILES)	TGI [1]	TGI [2]	TGI [3]	TGI [4]	TGI [5]	TGI [6]	TGI [7]	GI50 [1]	GI50 [2]	GI50 [3]	GI50 [4]	GI50 [8]	TGI [8]	GI50 [9]	TGI [9]	GI50 [10]	TGI [10]	GI50 [7]	GI50 [5]	GI50 [6]
Oc1cccc(C2SCc3nc4ccccc4n32)c1 (stereo not given)	> 100 µM	> 100 µM	> 100 µM	> 100 µM	> 100 µM	> 100 µM	> 100 µM	–	–	–	–	–	–	–	–	–	–	–	–	–
Fc1cccc(F)c1C1SCc2nc3ccccc3n21 (stereo not given)	> 100 µM	–	> 100 µM	> 100 µM	> 100 µM	82.7 µM	> 100 µM	–	–	–	–	–	–	–	–	–	–	–	–	–
C[C@]12CC[C@@H]3c4ccc(O)cc4CC[C@H]3[C@@H]1CC[C@@H]2NS(=O)(=O)c1cccc(Br)c1	10.2 µM	15.9 µM	8.72 µM	11.4 µM	–	–	6.76 µM	3.03 µM	4.21 µM	2.03 µM	2.36 µM	3.05 µM	10.3 µM	5.22 µM	17 µM	3.14 µM	13.6 µM	2.31 µM	–	–
CNC(=O)OCc1nc(S(C)=O)n(C)c1COC(=O)NC (stereo not given)	> 100 µM	> 100 µM	> 100 µM	> 100 µM	> 100 µM	> 100 µM	> 100 µM	–	–	–	–	–	–	–	–	–	> 100 µM	–	–	–
C=C(CO)CC(O)c1ccccc1 (stereo not given)	> 100 µM	> 100 µM	> 100 µM	> 100 µM	> 100 µM	> 100 µM	> 100 µM	–	–	–	–	–	–	–	–	–	–	–	–	–
NC1=C(c2nc(-c3cc4ccccc4oc3=O)cs2)C(c2ccco2)c2c(c3ccccc3oc2=O)O1 (stereo not given)	> 150 µg/mL	> 150 µg/mL	–	> 150 µg/mL	> 150 µg/mL	> 150 µg/mL	> 150 µg/mL	> 150 µg/mL	> 150 µg/mL	–	> 150 µg/mL	–	–	> 150 µg/mL	> 150 µg/mL	> 150 µg/mL	> 150 µg/mL	> 150 µg/mL	69.7 µg/mL	> 150 µg/mL
CSc1s[s+]c(SC)c1[O-]	36.8 µM	34.2 µM	> 100 µM	32.2 µM	> 100 µM	47.1 µM	> 100 µM	–	–	–	–	–	–	–	–	–	–	–	–	–
CC(NC(=O)C(N)Cc1ccccc1)C(=O)NC(Cc1ccc(O)cc1)C(=O)NC(Cc1c[nH]c2ccccc12)C(=O)NC(CCCCN)C(=O)NC(C(=O)NC(C)C(=O)NC(Cc1ccc2ccccc2c1)C(N)=O)C(C)C (stereo not given) (H-FAYWKVA[2Nal]-NH2; configuration not given here)	> 100 µM	> 100 µM	> 12.5 µM and 58.6 µM	> 12.5 µM	> 12.5 µM and 81 µM	> 12.5 µM and 31.9 µM	> 12.5 µM and 53.3 µM	33.9 µM	53.4 µM	27.1 µM	–	–	–	–	> 12.5 µM	–	> 12.5 µM	21.9 µM	25.9 µM	18 µM
Cc1ccccc1NC(=O)C(=O)Cc1nc2ccccc2s1	> 100 µM	> 100 µM	> 100 µM	> 100 µM	–	> 100 µM	> 100 µM	–	–	–	–	–	–	–	–	–	–	–	–	–
Clc1ccc2c(NCCCN3CCN(c4nc(-n5ccnc5)nc5ccccc45)CC3)ccnc2c1	–	3.34 µM	–	> 22.3 µM	> 100 µM	5.18 µM	–	–	1.8 µM	2.49 µM	–	–	–	> 100 µM	> 100 µM	–	–	–	> 28.4 µM	2.17 µM
O=C1OC(c2ccc([N+](=O)[O-])cc2)=N/C1=C\c1ccc(O)cc1	> 100 µM	> 100 µM	–	> 100 µM	> 100 µM	> 100 µM	> 100 µM	–	–	–	–	–	> 100 µM	–	> 100 µM	–	–	–	–	–
CCCCCN(CCCCC)C(=O)[C@@H](CCC(=O)OCc1ccccc1)NC(=O)c1cc2ccccc2[nH]1	> 100 µM	> 100 µM	> 100 µM	> 100 µM	> 100 µM	–	> 100 µM	–	–	–	–	–	–	–	–	–	–	–	–	–
CN(C)CC1(C)CC/C(=C\c2ccc3c(c2)OCO3)C1=O (stereo not given)	> 100 µM	> 100 µM	> 100 µM	> 100 µM	–	–	> 100 µM	–	–	–	–	–	–	–	–	–	–	–	–	–
N/C(=N\C(=S)N1CCCCC1)N1CCCCC1	> 100 µM	> 100 µM	> 100 µM	> 100 µM	> 100 µM	> 100 µM	> 100 µM	–	–	–	–	–	–	–	–	–	–	–	–	–
COc1ccc2cc(C(=O)/C=C/c3ccc(OC)c(OC)c3)ccc2c1	10.3 µM	98.9 µM	49.3 µM	–	68.4 µM	25 µM	32.1 µM	2.69 µM	33.7 µM	23.3 µM	–	21.1 µM	68.7 µM	15.5 µM	80.1 µM	–	–	4.82 µM	22 µM	2.31 µM
COc1ccc(OC)c(CCc2cc(OC)c(OC)cc2C)c1	–	> 100 µM	> 100 µM	20.4 µM	> 100 µM	–	> 100 µM	–	–	–	–	–	–	–	–	–	–	–	–	–
